Source: US20240190880A1 (THE REGENTS OF THE UNIVERSITY OF MICHIGAN, priority 2021, published 2024)
Like-named read-outs stand apart in the source and are kept apart here.

Biological target: T1, ER (Homo sapiens, UniProt P03372)
T1 construct: host or cells: T47D and MCF7 human breast cancer cells
T1 sequence (P03372 1-595): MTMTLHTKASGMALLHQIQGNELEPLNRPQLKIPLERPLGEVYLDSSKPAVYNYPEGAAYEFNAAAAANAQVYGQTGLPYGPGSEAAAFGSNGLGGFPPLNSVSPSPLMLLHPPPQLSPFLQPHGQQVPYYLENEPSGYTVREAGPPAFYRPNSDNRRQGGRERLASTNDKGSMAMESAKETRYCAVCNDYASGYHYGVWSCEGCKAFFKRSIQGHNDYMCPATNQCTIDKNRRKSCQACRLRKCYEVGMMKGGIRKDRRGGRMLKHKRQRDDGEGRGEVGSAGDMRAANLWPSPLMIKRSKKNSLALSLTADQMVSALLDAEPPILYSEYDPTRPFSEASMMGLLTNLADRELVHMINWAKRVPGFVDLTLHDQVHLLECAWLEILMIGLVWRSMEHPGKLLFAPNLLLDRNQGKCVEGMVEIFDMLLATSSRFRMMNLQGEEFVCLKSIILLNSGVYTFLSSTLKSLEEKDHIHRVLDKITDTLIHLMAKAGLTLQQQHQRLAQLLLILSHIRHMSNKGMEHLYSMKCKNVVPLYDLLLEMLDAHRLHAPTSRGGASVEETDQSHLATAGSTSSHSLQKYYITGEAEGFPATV
Experiment: ER degradation activity, in-cell western blot analysis in T47D cells
Assay type: cell-based
Method in brief: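 Cells were seeded overnight, exposed to diluted compounds for 16 hours, then stained with primary antibodies and with infrared-labelled secondary antibodies (1:1000, 1 h RT). Plates were scanned on a CLX reader, and ER levels were normalised to DMSO-treated wells.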

[1] = 16 hours, Table A does not say which cell line (T47D or MCF7), read-out: Potency (DC50)
[2] = compounds 16 hours, Table A does not say whether T47D or MCF7, read-out: Potency (DC50)

| Structure (SMILES) | DC50 [1] [nM] | DC50 [2] [nM] |
| --- | --- | --- |
| O=C1CCC(N2C(=O)c3cc4c(cc3C2=O)CN([C@H]2CC[C@@H](C(=O)N3CC(Nc5ccc([C@H]6c7ccc(O)cc7CC[C@H]6c6ccccc6)cc5)C3)CC2)C4)C(=O)N1 (stereo partly drawn) [E 386, 2-(2,6-dioxopiperidin-3-yl)-6-((1R,4s)-4-(3-((4-((1S,2R)-6-hydroxy-2-phenyl-1,2,3,4-tetrahydronaphthalen-1-yl)phenyl)amino)azetidine-1-carbonyl)cyclohexyl)-6,7-dihydropyrrolo[3,4-f]isoindole-1,3(2H,5H)-dione] | > 100 | – |
| CN(C1CCN(c2ccc([C@@H]3c4ccc(O)cc4CC[C@@H]3c3ccccc3)cc2)CC1)N1CCC(C(=O)N2Cc3cc4c(cc3C2)C(=O)N(C2CCC(=O)NC2=O)C4)CC1 (mixture of isomers) [E 288, 3-(6-(1-((1-(4-((1R,2S)-6-hydroxy-2-phenyl-1,2,3,4-tetrahydronaphthalen-1-yl)phenyl)piperidin-4-yl)(methyl)amino)piperidine-4-carbonyl)-1-oxo-3,5,6,7-tetrahydropyrrolo[3,4-f]isoindol-2(1H)-yl)piperidine-2,6-dione] | 10 to 100 | – |
| O=C1CCC(N2C(=O)c3cc4c(cc3C2=O)CN(CC(=O)N2CCC3(CC2)CCN(c2ccc([C@@H]5c6ccc(O)cc6CC[C@@H]5c5ccccc5)nc2)CC3)C4)C(=O)N1 (mixture of isomers) [E 305, Rac-2-(2,6-dioxopiperidin-3-yl)-6-(2-(9-(6-((1S,2S)-6-hydroxy-2-phenyl-1,2,3,4-tetrahydronaphthalen-1-yl)pyridin-3-yl)-3,9-diazaspiro[5.5]undecan-3-yl)-2-oxoethyl)-6,7-dihydropyrrolo[3,4-f]isoindole-1,3(2H,5H)-dione] | > 100 | – |
| O=C1CCC(N2C(=O)c3cc4c(cc3C2=O)CN(C2CCN(CC3CN(c5ccc([C@H]6c7ccc(O)cc7CC[C@H]6c6ccc(F)cc6)cc5)C3)CC2)C4)C(=O)N1 (stereo partly drawn) [E 276, 2-(2,6-dioxopiperidin-3-yl)-6-(1-((1-(4-((1S,2R)-2-(4-fluorophenyl)-6-hydroxy-1,2,3,4-tetrahydronaphthalen-1-yl)phenyl)azetidin-3-yl)methyl)piperidin-4-yl)-6,7-dihydropyrrolo[3,4-f]isoindole-1,3(2H,5H)-dione] | > 100 | – |
| C[C@@H]1Cc2c([nH]c3ccccc23)[C@@H](c2c(F)cc(N3CCC(CN4CCCC(N5Cc6cc7c(cc6C5)C(=O)N(C5CCC(=O)NC5=O)C7=O)CC4)CC3)cc2F)N1CC(F)F (stereo partly drawn) [E 130, 6-(1-((1-(4-((1R,3R)-2-(2,2-difluoroethyl)-3-methyl-2,3,4,9-tetrahydro-1H-pyrido[3,4-b]indol-1-yl)-3,5-difluorophenyl)piperidin-4-yl)methyl)azepan-4-yl)-2-(2,6-dioxopiperidin-3-yl)-6,7-dihydropyrrolo[3,4-f]isoindole-1,3(2H,5H)-dione] | < 10 | – |
| O=C1CCC(N2C(=O)c3cc4c(cc3C2=O)CN(CC(=O)N2CCC3(C2)CN(c2ccc([C@@H]5c6ccc(O)cc6CC[C@@H]5c5ccccc5)cc2)C3)C4)C(=O)N1 (mixture of isomers) [E 17, rac-2-(2,6-dioxopiperidin-3-yl)-6-(2-(2-(4-((1R,2S)-6-hydroxy-2-phenyl-1,2,3,4-tetrahydronaphthalen-1-yl)phenyl)-2,6-diazaspiro[3.4]octan-6-yl)-2-oxoethyl)-6,7-dihydropyrrolo[3,4-f]isoindole-1,3(2H,5H)-dione] | 10 to 100 | – |
| O=C1CCC(N2C(=O)c3cc4c(cc3C2=O)CN(C2CCC(C(=O)N3CCN(c5ccc([C@@H]6c7ccc(O)cc7CC[C@@H]6c6ccccc6)cc5)CC3)CC2)C4)C(=O)N1 (stereo partly drawn) [E 291, 2-(2,6-dioxopiperidin-3-yl)-6-(4-(4-(4-((1R,2S)-6-hydroxy-2-phenyl-1,2,3,4-tetrahydronaphthalen-1-yl)phenyl)piperazine-1-carbonyl)cyclohexyl)-6,7-dihydropyrrolo[3,4-f]isoindole-1,3(2H,5H)-dione] | > 100 | – |
| O=C1CCC(N2C(=O)c3cc4c(cc3C2=O)CN(CC2(F)CCN(C(=O)C3(F)CN(c5ccc([C@@H]6c7ccc(O)cc7CC[C@@H]6c6ccccc6)cc5)C3)CC2)C4)C(=O)N1 (stereo partly drawn) [E 202, 2-(2,6-dioxopiperidin-3-yl)-6-((4-fluoro-1-(3-fluoro-1-(4-((1R,2S)-6-hydroxy-2-phenyl-1,2,3,4-tetrahydronaphthalen-1-yl)phenyl)azetidine-3-carbonyl)piperidin-4-yl)methyl)-6,7-dihydropyrrolo[3,4-f]isoindole-1,3(2H,5H)-dione] | > 100 | – |
| C[C@@H]1Cc2c([nH]c3ccccc23)[C@@H](c2cnc(C3=CCC(C(=O)N4CCC(N5Cc6cc7c(cc6C5)C(=O)N(C5CCC(=O)NC5=O)C7=O)CC4)CC3)nc2)N1CC(F)F (stereo partly drawn) [E 315, 6-(1-(4-(5-((1R,3R)-2-(2,2-difluoroethyl)-3-methyl-2,3,4,9-tetrahydro-1H-pyrido[3,4-b]indol-1-yl)pyrimidin-2-yl)cyclohex-3-ene-1-carbonyl)piperidin-4-yl)-2-(2,6-dioxopiperidin-3-yl)-6,7-dihydropyrrolo[3,4-f]isoindole-1,3(2H,5H)-dione] | > 100 | – |
| C[C@@H]1CC2(CCN(c3ccc([C@@H]4c5ccc(O)cc5CC[C@@H]4c4ccc(F)cc4)cc3)CC2)CN1C(=O)CN1Cc2cc3c(cc2C1)C(=O)N(C1CCC(=O)NC1=O)C3=O (mixture of isomers) [E 145, Rac-2-(2,6-dioxopiperidin-3-yl)-6-(2-((R)-8-(4-((1R,2S)-2-(4-fluorophenyl)-6-hydroxy-1,2,3,4-tetrahydronaphthalen-1-yl)phenyl)-3-methyl-2,8-diazaspiro[4.5]decan-2-yl)-2-oxoethyl)-6,7-dihydropyrrolo[3,4-f]isoindole-1,3(2H,5H)-dione] | 10 to 100 | – |
| C[C@@H]1Cc2c([nH]c3ccccc23)[C@@H](c2ccc(C3CCC(C(=O)N4CCC(N5Cc6cc7c(cc6C5)C(=O)N(C5CCC(=O)NC5=O)C7=O)CC4)CC3)nc2)N1CC(F)F (stereo partly drawn) [E 319, 6-(1-(4-(5-((1R,3R)-2-(2,2-difluoroethyl)-3-methyl-2,3,4,9-tetrahydro-1H-pyrido[3,4-b]indol-1-yl)pyridin-2-yl)cyclohexane-1-carbonyl)piperidin-4-yl)-2-(2,6-dioxopiperidin-3-yl)-6,7-dihydropyrrolo[3,4-f]isoindole-1,3(2H,5H)-dione] | > 100 | – |
| O=C1CCC(N2C(=O)c3cc4c(cc3C2=O)CN(CC2CCN(C(=O)C3CCN(c5ccc([C@@H]6c7ccc(O)cc7CC[C@@H]6c6ccccc6)cc5)CC3)CC2)C4)C(=O)N1 (stereo partly drawn) [E 204, 2-(2,6-dioxopiperidin-3-yl)-6-((1-(1-(4-((1R,2S)-6-hydroxy-2-phenyl-1,2,3,4-tetrahydronaphthalen-1-yl)phenyl)piperidine-4-carbonyl)piperidin-4-yl)methyl)-6,7-dihydropyrrolo[3,4-f]isoindole-1,3(2H,5H)-dione] | 10 to 100 | – |
| O=C1CCC(N2Cc3cc4c(cc3C2=O)C(=O)N(C2CCN(CC3CCN(c5ccc([C@@H]6c7ccc(O)cc7CC[C@@H]6c6ccccc6)cc5)CC3)CC2)C4)C(=O)N1 (stereo partly drawn) [E 507, 2-(2,6-dioxopiperidin-3-yl)-6-(1-((1-(4-((1R,2S)-6-hydroxy-2-phenyl-1,2,3,4-tetrahydronaphthalen-1-yl)phenyl)piperidin-4-yl)methyl)piperidin-4-yl)-2,3,5,6-tetrahydropyrrolo[3,4-f]isoindole-1,7-dione] | – | > 100 |
| O=C1CCC(N2C(=O)c3cc4c(cc3C2=O)CN(CC2CCN(C(=O)C3CN(c5ccc([C@@H]6c7ccc(O)cc7CC[C@@H]6c6ccccc6)cc5)C3)CC2)C4)C(=O)N1 (mixture of isomers) [E 156, Rac-2-(2,6-dioxopiperidin-3-yl)-6-((1-(1-(4-((1R,2S)-6-hydroxy-2-phenyl-1,2,3,4-tetrahydronaphthalen-1-yl)phenyl)azetidine-3-carbonyl)piperidin-4-yl)methyl)-6,7-dihydropyrrolo[3,4-f]isoindole-1,3(2H,5H)-dione] | 10 to 100 | – |
| CC1(C(=O)N2CCC(N3Cc4cc5c(cc4C3)C(=O)N(C3CCC(=O)NC3=O)C5=O)CC2)CCN(c2ccc([C@@H]3c4ccc(O)cc4CC[C@@H]3c3ccccc3)cc2)CC1 (mixture of isomers) [E 488, rac-2-(2,6-dioxopiperidin-3-yl)-6-(1-(1-(4-((1R,2S)-6-hydroxy-2-phenyl-1,2,3,4-tetrahydronaphthalen-1-yl)phenyl)-4-methylpiperidine-4-carbonyl)piperidin-4-yl)-6,7-dihydropyrrolo[3,4-f]isoindole-1,3(2H,5H)-dione] | – | > 100 |
| C[C@@H]1Cc2c([nH]c3ccccc23)[C@@H](c2c(F)cc(N3CCC(CC(=O)N4Cc5cc6c(cc5C4)C(=O)N(C4CCC(=O)NC4=O)C6)CC3)cc2F)N1CC(F)F (stereo partly drawn) [E 104, 3-(6-(2-(1-(4-((1R,3R)-2-(2,2-difluoroethyl)-3-methyl-2,3,4,9-tetrahydro-1H-pyrido[3,4-b]indol-1-yl)-3,5-difluorophenyl)piperidin-4-yl)acetyl)-1-oxo-3,5,6,7-tetrahydropyrrolo[3,4-f]isoindol-2(1H)-yl)piperidine-2,6-dione] | > 100 | – |
